Laboratory results from patent publication EP4725956A1, “MODIFIED POLYPEPTIDE AND USE THEREOF IN FIELD OF ANALGESIA” (Nanjing Anji Biotechnology Co., Ltd., priority 2023, dated 2024).
Positions of bridges follow the written chain, without caps; N, C: chain ends. Non-standard residues stand in square brackets, D forms with d. Residues, ends and D or L forms follow the SMILES beside them. Bip = N[C@@H](Cc1ccc(-c2ccccc2)cc1)C(=O)O; Hyp = O=C(O)[C@@H]1C[C@@H](O)CN1; Nle = CCCC[C@H](N)C(=O)O; Orn = NCCC[C@H](N)C(=O)O; Aib = CC(C)(N)C(=O)O

Tests used:
α9 nAChR = target: T1, α9 nAChR (Homo sapiens, UniProt Q9UGM1); assay: BLI (biolayer interferometry) affinity of peptides to α9 nAChR; type: binding; conditions: NTA sensor, α9 nAChR 5 µg/mL, peptide 1.372-1000 nM in PBS
T1 construct: inferred from capture on NTA sensor
T1 sequence (Q9UGM1 23-479): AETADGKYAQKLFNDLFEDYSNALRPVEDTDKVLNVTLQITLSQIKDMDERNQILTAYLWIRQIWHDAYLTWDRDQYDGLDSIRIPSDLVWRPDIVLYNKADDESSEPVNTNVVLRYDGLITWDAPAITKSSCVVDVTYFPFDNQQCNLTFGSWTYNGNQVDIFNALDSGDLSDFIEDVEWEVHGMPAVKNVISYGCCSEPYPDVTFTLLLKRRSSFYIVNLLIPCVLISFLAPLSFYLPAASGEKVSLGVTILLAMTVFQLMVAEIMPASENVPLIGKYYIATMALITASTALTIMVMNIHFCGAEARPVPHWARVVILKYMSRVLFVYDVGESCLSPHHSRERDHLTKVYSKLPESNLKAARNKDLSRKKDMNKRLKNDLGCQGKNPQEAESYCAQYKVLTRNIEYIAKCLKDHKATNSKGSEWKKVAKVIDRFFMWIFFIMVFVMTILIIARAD
Description: BLI is a label-free technology that converts optical interference signals occurring on the surface of BLI biosensors into real-time response signals. By monitoring the molecular binding process in real time, the system determines association rate constants (ka or kon), dissociation rate constants (kd or koff), and initial binding rates, and calculates affinity (KD) by fitting analysis. Here are the specific procedures: NTA sensors (Sartorius) were placed in a pre-wetting tray, which was then positioned in a black 96-well plate with 200 µL PBS per well. The NTA sensors were pre-wetted for at least 15 minutes. The target protein α9 nAChR was diluted in PBS to 5 µg/mL, with 200 µL added per well. Test peptides were dissolved in PBS and serially diluted threefold, with concentrations from high to low as 1000 nM, 333.3 nM, 111.1 nM, 37.04 nM, 12.35 nM, 4.115 nM, and 1.372 nM, with an additional well with PBS only as a zeroconcentration control. After equilibrating the instrument baseline, the NTA sensor was used to immobilize the target protein α9 nAChR. Once immobilization was complete, the baseline was re-equilibrated, followed by a 5-minute association and a 5-minute dissociation phase. Affinity measurements of the test peptides were conducted sequentially using the above procedure. The procedure for measuring peptide affinity to α7 nAChR was similar, except that the α7 nAChR concentration was 20 µg/mL. Tables 2 and 3 show the BLI-determined affinities of alanine-scan peptide analogs with target proteins, which identified sites on the parent peptide suitable for modification. Subsequently, single-site non-natural amino acid substituted peptides were evaluated by BLI for target protein affinity. Finally, multi-site combinatorial modified peptides were measured for affinity by BLI, leading to the selection of high-affinity peptides for further screen and drug development potential. Table 2 Test Results for Affinity of Modified Peptides to α9 nAChR

[1] = system: mouse oxaliplatin acute chemotherapy pain model; assay: Mouse oxaliplatin chemotherapy pain model, multiple peptides (Example 8); type: in vivo; conditions: single dose 3 mg/kg s.c., 0.5-8 h post-dose, n=3
Description: Oxaliplatin was dissolved in 5% glucose solution to a concentration of 1 mg/mL. For model induction, each male C57 mouse (Shanghai Bikai Keyi Biotechnology Co., Ltd.) received a single intraperitoneal injection of oxaliplatin at 10 mg/kg. Mice in the negative control or blank control group received 5% glucose solution. Approximately one week after model induction, mechanical pain thresholds of the mice were measured three times per mouse, and the average value was calculated. Mice were then randomly assigned to groups based on their pain thresholds. Drug administration was carried out according to the dosing schedule shown in Table 7, with a single dose per mouse. Mechanical pain thresholds were measured at 0.5, 1, 2, 4, 6, and 8 h post-dose. […] Table 7 Dosing Scheme for Oxaliplatin Chemotherapy Pain Model in Mice

[2] = Plasma stability of AJ003-40 and AJ003-24 (HPLC, Example 4); type: in vitro ADME; conditions: human plasma; for main peak area: 2 mg/mL
Description: Peptides AJ003-40 and AJ003-24 were separately weighed and mixed with human plasma to prepare solutions at 2 mg/mL. 300 µL of peptide-containing plasma was mixed with 300 µL acetonitrile, centrifuged at 4°C and 12,000 rpm for 5 minutes, and the supernatant was filtered through an organic membrane. 200 µL of the filtrate was transferred to an LC vial as the 0 h sample. Peptide-containing plasma was incubated in a 37°C water bath. For AJ003-40, 300 µL of plasma was sampled at 24 h, mixed with 300 µL acetonitrile, centrifuged, filtered, and 200 µL of the filtrate was transferred to an LC vial as the 24 h sample. For AJ003-24, 300 µL of plasma was sampled at 22 h, processed similarly, and 200 µL of the filtrate was transferred to an LC vial as the 22 h sample.

Compound: CC(C)C[C@H](NC(=O)[C@@H](NC(=O)[C@H]1CSSC[C@H](NC(=O)[C@H](CO)NC(=O)CN)C(=O)N[C@@H](CO)C(=O)N[C@@H]([C@@H](C)O)C(=O)N2CCC[C@H]2C(=O)N2CCC[C@H]2C(=O)N[C@@H](CO)C(=O)N1)C(C)C)C(=O)N[C@@H](Cc1ccc(O)cc1)C(=O)N[C@@H](CO)C(=O)O [AJ003, GSCSTPPS-(D-Cys)-VLYS (disulfide bond between positions 3 and 9)] (H-GSCSTPPS[dC]VLYS-OH; disulfide 3-9)
- Kd (α9 nAChR): 4.48 nM

Compound: CCCC[C@H](NC(=O)[C@@H](NC(=O)[C@H]1CSSC[C@H](NC(=O)[C@H](CO)NC(=O)CN)C(=O)N[C@@H](CO)C(=O)N[C@H]([C@H](C)O)C(=O)N2C[C@H](O)C[C@H]2C(=O)N2C[C@H](O)C[C@H]2C(=O)NC(C)(C)C(=O)N1)C(C)C)C(=O)N[C@@H](Cc1ccc(-c2ccccc2)cc1)C(=O)N[C@@H](CCCN)C(N)=O [AJ003-36, GSCS-(D-Thr)-Hyp-Hyp-Aib-(D-Cys)-V-Nle-Bip-Orn-NH2 (3,9 disulfide bond)] (H-GSCS[dT][Hyp][Hyp][Aib][dC]V[Nle][Bip][Orn]-NH2; disulfide 3-9)
- analgesic activity against oxaliplatin-induced chemotherapy pain (mechanical pain threshold compared with the model group) [1]: effective analgesic activity

Compound: CCCC[C@H](NC(=O)[C@@H](NC(=O)[C@H]1CSSC[C@H](NC(=O)[C@H](CO)NC(=O)CN)C(=O)N[C@@H](CO)C(=O)N[C@H]([C@H](C)O)C(=O)N2C[C@H](O)C[C@H]2C(=O)N2C[C@H](O)C[C@H]2C(=O)N[C@@H](CO)C(=O)N1)C(C)C)C(=O)N[C@@H](Cc1c[nH]c2ccccc12)C(=O)N[C@@H](CCCN)C(N)=O [AJ003-40, GSCS-(D-Thr)-Hyp-Hyp-S-(D-Cys)-V-Nle-W-Orn-NH2 (3,9 disulfide bond)] (H-GSCS[dT][Hyp][Hyp]S[dC]V[Nle]W[Orn]-NH2; disulfide 3-9)
- main peak area ([2]; 0 h): 15149.38
- main peak area ([2]; 37°C, 24 h): 11829.51
- metabolised at 24 h, 2 mg/mL ([2]; 37°C, 24 h, read-out: degradation): 21.9%
